Measured values published in US20120058499A1, “Bioluminescent Detection of Protease Activity” (priority 2010, published 2012).

How the values were obtained:
[1] = system: Otub2, JosD1, JosD2, AMSH, Ataxin3, Ataxin3-like, UCHL5, USP20, and USP14; experiment: Substrate comparison on panel of nine isopeptidases; type: biochemical; settings: seven of nine DUBs (exceptions JosD2 and UCHL5)
Protocol: (§1) For Ub-AMC and Ub-Rhodamine110, all enzymes were diluted into 50 mM Tris, pH 8.0, 5 mM DTT, 0.05% CHAPS to a final concentration of 10 nM. […] Either Ub-AMC or Ub-Rhodamine110 (final reaction concentration equal to 250 nM) were diluted into 50 mM Tris, pH 8.0, 5 mM DTT, 0.05% (w/v) CHAPS. […] For Ub-Rhodamine110, fluorescence was monitored with filters corresponding to excitation at 485 nm and emission at 531 nm.

JosD2 = molecular target: T1, JosD2 (Homo sapiens, UniProt Q8TAC2); experiment: Platform comparison of DUB substrates, signal to background; type: biochemical; settings: DUB 10 nM; signal at 30 minutes; Ub-LUC 100 nM, DUB-Glo substrate 20 μM, Ub-AMC/Ub-rho 250 nM
T1 sequence (Q8TAC2 1-188): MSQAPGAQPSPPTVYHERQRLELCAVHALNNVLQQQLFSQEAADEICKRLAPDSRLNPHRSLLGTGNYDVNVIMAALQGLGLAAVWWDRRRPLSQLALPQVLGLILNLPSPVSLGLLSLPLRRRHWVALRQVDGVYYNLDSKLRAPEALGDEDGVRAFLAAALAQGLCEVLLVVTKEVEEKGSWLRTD
Protocol: as §1

Ataxin3-like = molecular target: T2, Ataxin3-like (Homo sapiens, UniProt Q9H3M9); experiment: as above; type: biochemical; settings: DUB 10 nM; signal at 30 minutes; Ub-LUC 100 nM, DUB-Glo substrate 20 μM, Ub-AMC/Ub-rho 250 nM
T2 sequence (Q9H3M9 1-355): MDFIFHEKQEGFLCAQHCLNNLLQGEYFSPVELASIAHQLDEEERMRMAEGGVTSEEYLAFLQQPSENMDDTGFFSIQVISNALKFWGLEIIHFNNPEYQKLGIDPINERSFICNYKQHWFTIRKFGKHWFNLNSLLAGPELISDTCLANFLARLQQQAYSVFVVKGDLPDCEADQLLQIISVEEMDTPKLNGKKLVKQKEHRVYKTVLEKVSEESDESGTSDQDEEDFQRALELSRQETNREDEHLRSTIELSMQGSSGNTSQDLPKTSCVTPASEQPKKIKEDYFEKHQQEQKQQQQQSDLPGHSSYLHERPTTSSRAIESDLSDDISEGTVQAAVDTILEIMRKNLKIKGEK
Protocol: as §1

Otub2 = molecular target: T3, Otub2 (Homo sapiens, UniProt Q96DC9); experiment: as above; type: biochemical; settings: DUB 10 nM; signal at 30 minutes; Ub-LUC 100 nM, DUB-Glo substrate 20 μM, Ub-AMC/Ub-rho 250 nM
T3 sequence (Q96DC9 1-234): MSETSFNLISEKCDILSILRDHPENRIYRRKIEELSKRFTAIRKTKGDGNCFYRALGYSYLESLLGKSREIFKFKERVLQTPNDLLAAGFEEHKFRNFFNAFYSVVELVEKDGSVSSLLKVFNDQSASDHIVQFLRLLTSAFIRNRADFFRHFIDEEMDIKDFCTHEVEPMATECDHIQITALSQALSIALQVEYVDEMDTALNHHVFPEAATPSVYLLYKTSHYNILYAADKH
Protocol: as §1

AMSH = molecular target: T4, AMSH (Homo sapiens, UniProt O95630); experiment: as above; type: biochemical; settings: DUB 10 nM; signal at 30 minutes; Ub-LUC 100 nM, DUB-Glo substrate 20 μM, Ub-AMC/Ub-rho 250 nM
T4 sequence (O95630 1-424): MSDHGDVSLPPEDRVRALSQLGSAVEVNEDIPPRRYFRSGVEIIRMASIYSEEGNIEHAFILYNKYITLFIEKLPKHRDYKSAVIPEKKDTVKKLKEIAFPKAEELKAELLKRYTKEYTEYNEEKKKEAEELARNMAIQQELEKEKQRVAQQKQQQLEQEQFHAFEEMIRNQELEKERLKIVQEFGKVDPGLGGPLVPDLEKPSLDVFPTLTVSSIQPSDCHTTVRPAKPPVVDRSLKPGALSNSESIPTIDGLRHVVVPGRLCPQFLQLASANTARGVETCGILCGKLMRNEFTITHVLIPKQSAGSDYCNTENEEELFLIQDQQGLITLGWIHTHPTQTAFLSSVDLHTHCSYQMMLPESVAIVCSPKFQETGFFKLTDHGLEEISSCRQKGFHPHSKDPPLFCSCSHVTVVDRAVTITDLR
Protocol: as §1

JosD1 = JosD1 (Homo sapiens, UniProt Q15040); experiment: as above; type: biochemical; settings: DUB 10 nM; signal at 30 minutes; Ub-LUC 100 nM, DUB-Glo substrate 20 μM, Ub-AMC/Ub-rho 250 nM
Protocol: as §1

USP14 = USP14 (Homo sapiens, UniProt P54578); experiment: as above; type: biochemical; settings: DUB 10 nM; signal at 30 minutes; Ub-LUC 100 nM, DUB-Glo substrate 20 μM, Ub-AMC/Ub-rho 250 nM
Protocol: as §1

UCHL5 = molecular target: T5, UCHL5 (Homo sapiens, UniProt Q9Y5K5); experiment: as above; type: biochemical; settings: DUB 10 nM; signal at 30 minutes; Ub-LUC 100 nM, DUB-Glo substrate 20 μM, Ub-AMC/Ub-rho 250 nM
T5 sequence (Q9Y5K5 1-329): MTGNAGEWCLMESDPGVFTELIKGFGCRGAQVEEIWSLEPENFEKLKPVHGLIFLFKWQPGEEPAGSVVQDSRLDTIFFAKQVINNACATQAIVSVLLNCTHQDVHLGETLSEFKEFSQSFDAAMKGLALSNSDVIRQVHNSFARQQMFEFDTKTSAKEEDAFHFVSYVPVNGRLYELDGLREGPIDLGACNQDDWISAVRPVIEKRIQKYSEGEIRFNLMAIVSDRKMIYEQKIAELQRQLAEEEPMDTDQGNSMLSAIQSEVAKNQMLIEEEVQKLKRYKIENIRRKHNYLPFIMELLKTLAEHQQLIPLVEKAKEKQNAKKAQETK
Protocol: as §1

Ataxin3 = Ataxin3 (Homo sapiens, UniProt P54252); experiment: as above; type: biochemical; settings: DUB 10 nM; signal at 30 minutes; Ub-LUC 100 nM, DUB-Glo substrate 20 μM, Ub-AMC/Ub-rho 250 nM
Protocol: as §1

isopeptidase T = molecular target: T6, isopeptidase T (Homo sapiens, UniProt P45974); settings: Dang et al., 1998; cited from earlier work
T6 sequence (P45974 1-858): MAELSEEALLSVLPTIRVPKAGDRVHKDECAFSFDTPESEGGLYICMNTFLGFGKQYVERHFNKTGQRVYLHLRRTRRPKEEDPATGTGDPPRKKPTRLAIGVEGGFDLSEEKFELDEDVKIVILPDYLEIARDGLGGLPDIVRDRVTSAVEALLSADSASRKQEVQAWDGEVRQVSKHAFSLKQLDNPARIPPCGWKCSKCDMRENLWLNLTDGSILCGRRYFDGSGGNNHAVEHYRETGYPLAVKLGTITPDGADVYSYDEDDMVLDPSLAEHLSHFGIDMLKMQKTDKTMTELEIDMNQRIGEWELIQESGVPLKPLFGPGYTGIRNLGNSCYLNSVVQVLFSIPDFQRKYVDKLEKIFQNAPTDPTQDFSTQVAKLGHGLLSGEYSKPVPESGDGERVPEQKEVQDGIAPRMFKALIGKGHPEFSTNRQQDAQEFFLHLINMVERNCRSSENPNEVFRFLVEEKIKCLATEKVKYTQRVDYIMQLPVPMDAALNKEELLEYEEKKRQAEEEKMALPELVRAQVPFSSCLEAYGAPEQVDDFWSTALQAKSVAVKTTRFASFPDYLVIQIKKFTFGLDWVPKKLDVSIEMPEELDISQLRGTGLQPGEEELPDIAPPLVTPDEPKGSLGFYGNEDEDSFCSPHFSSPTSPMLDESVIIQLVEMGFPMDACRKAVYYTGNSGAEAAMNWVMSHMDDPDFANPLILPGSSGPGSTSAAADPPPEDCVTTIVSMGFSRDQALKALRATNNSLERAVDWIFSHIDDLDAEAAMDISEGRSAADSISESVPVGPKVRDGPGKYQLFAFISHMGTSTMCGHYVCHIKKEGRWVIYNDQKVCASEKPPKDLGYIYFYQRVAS

Sequence of Ataxin3 (P54252 whole entry, species assumed): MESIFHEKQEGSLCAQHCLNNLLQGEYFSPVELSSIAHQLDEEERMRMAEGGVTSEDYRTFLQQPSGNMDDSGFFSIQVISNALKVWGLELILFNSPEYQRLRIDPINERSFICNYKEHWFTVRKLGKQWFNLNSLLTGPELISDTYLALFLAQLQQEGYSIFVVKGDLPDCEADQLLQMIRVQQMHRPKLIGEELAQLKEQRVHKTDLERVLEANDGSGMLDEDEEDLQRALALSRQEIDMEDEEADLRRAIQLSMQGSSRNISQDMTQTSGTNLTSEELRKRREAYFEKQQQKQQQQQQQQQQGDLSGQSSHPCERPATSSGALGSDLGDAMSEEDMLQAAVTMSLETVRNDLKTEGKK
Sequence of USP14 (P54578 whole entry, species assumed): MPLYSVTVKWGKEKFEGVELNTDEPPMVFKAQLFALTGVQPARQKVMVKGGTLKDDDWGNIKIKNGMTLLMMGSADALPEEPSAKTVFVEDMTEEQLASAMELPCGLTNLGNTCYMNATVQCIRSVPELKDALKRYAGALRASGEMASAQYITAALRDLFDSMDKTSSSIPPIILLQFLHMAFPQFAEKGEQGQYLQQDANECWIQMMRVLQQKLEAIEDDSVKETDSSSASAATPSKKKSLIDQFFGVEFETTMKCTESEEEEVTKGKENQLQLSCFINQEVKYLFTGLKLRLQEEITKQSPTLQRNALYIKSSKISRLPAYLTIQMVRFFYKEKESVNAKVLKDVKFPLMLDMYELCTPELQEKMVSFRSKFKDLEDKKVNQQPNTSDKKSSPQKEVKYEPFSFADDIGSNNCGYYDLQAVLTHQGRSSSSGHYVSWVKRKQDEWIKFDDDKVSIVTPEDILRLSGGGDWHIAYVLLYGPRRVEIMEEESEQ

| Substance | detectable activity (S/B>3) [1] | Signal to Background value (JosD2) | Signal to Background value (Ataxin3-like) | Signal to Background value (Otub2) | Signal to Background value (AMSH) | Signal to Background value (JosD1) | Signal to Background value (USP14) | Signal to Background value (UCHL5) | Signal to Background value (Ataxin3) | relative catalytic efficiency (kcat/Km), fold higher than AMC derivative of Z-Leu-Arg-Gly-Gly peptide (isopeptidase T) | detectable activity (S/B>3) ([1]; listed as Ub-Rhodamine110) | detectable activity (S/B>3) ([1]; listed as Ub-rhodamine110) |
| --- | --- | --- | --- | --- | --- | --- | --- | --- | --- | --- | --- | --- |
| ubiquitin-7-amino-4-methylcoumarin [Ub-AMC] | little to no detectable activity | 2.1 | 1.1 | 1.2 | 1.0 | 1.1 | 1.0 | 8.1 | 0.9 | ~8000 fold |  |  |
| ubiquitin-rhodamine110 [Ub-rho] |  | 8.2 | 1.6 | 1.7 | 1.2 | 1.5 |  | 103 | 1.3 |  | no detectable activity | little to no detectable activity |
